This assay addresses Carbonic anhydrase 9 (Homo sapiens, UniProt Q16790). Kind of assay: Inhibition of human CA IX assessed as inhibition constant by stopped-flow CO2 hydrase assay method.

Take `COc1cc2c(cc1OC)-c1c(c(C(=O)Nc3ccc(S(N)(=O)=O)cc3)nn1C)C2`: the inhibition constant Ki stood at 3.2 nM.

A word on the Ki: it is the dissociation constant of the complex between target and ligand, obtained from inhibition or displacement.

Source of the values: ChEMBL document CHEMBL5537176, “Discovery of Novel Pyridazine-Tethered Sulfonamides as Carbonic Anhydrase II Inhibitors for the Management of Glaucoma” (J Med Chem, 2024).
